One assay concerns peptide-pulsed C1R-A33. Nature of the assay: IFN-gamma ELISA of CTL lines and CTL clones (HLA-A*3303). Type of assay: cell-based, human. An outline of the steps: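 Responders were CTL lines and clones expanded with anti-CD3, IL-2 and Mitomycin C-treated B lymphoblastoid feeders, with clones obtained by limiting dilution and tested on day 14. Stimulators were peptide-pulsed C1R-A33 cells at 1×10^4 cells/well. IFN-gamma was measured by ELISA and ELISPOT.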
For orientation: An ELISA detects its analyte on a solid surface through an enzyme-linked reagent.

Another assay relates to peptide-pulsed C1R-A11. The experiment in a line: In vitro CTL induction, IFN-gamma ELISPOT assay (HLA-A*1101). The conditions noted are these: CTLs induced with peptide-pulsed DCs from HLA-A*1101-positive volunteers; day 21; vs peptide-pulsed C1R-A11, compared with unpulsed control. The format is cell-based, human. The essentials: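 CD8+ T cells from HLA-A*1101-positive donors were stimulated three times (days 0, 7, 14) with irradiated autologous monocyte-derived DCs pulsed with 20 μg/ml peptide, in the presence of IL-7 and IL-2. On day 21, […] were tested by IFN-gamma ELISPOT against peptide-pulsed C1R-A11 stimulators at 1×10^4 cells/well.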

For the sequence “ILAHNNFVGR (a peptide derived from KOC1) [SEQ ID NO: 52]”, in the assay on peptide-pulsed C1R-A33 (CTL clones by limiting dilution, peptide-pulsed C1R-A33, listed as KOC1-A33-10-281), the “IFN-gamma production of CTL clones, ELISA” value is listed as “Potent IFN-gamma production”. In the assay with peptide-pulsed C1R-A33 (CTL lines, target cells pulsed with the peptide vs not pulsed, C1R-A33), the “IFN-gamma production of CTL lines, ELISA” value is recorded as “potent IFN-gamma production”.

Consider “TQFVGAIIGK (a peptide derived from KOC1) [SEQ ID NO: 30]”, for which, in the assay on peptide-pulsed C1R-A11, the “peptide-specific CTL activity (IFN-gamma production), ELISPOT” value is given as “potent IFN-gamma production”.

The values above are taken from patent publication US10576102B2, “KOC1-derived peptide and vaccine including same” (ONCOTHERAPY SCIENCE, INC., priority 2014, dated 2020).
